The source of these data is ChEMBL document CHEMBL4130452, “Design of Selective Benzoxazepin PI3Kδ Inhibitors Through Control of Dihedral Angles” (ACS Med Chem Lett, 2017).

Data set [1] in a line: Stability in human liver microsomes at 1 uM in presence of NADPH by LC-MS/MS analysis. The data set is classed as ADME, microsome. The settings on record: read-out: Stability. On the technique in general: Liver microsomes are a subcellular fraction often used to study metabolism.
Data set [2] concerns the target T1, Phosphatidylinositol 4,5-bisphosphate 3-kinase catalytic subunit delta isoform (Homo sapiens, UniProt O00329).
T1 sequence (O00329 whole entry): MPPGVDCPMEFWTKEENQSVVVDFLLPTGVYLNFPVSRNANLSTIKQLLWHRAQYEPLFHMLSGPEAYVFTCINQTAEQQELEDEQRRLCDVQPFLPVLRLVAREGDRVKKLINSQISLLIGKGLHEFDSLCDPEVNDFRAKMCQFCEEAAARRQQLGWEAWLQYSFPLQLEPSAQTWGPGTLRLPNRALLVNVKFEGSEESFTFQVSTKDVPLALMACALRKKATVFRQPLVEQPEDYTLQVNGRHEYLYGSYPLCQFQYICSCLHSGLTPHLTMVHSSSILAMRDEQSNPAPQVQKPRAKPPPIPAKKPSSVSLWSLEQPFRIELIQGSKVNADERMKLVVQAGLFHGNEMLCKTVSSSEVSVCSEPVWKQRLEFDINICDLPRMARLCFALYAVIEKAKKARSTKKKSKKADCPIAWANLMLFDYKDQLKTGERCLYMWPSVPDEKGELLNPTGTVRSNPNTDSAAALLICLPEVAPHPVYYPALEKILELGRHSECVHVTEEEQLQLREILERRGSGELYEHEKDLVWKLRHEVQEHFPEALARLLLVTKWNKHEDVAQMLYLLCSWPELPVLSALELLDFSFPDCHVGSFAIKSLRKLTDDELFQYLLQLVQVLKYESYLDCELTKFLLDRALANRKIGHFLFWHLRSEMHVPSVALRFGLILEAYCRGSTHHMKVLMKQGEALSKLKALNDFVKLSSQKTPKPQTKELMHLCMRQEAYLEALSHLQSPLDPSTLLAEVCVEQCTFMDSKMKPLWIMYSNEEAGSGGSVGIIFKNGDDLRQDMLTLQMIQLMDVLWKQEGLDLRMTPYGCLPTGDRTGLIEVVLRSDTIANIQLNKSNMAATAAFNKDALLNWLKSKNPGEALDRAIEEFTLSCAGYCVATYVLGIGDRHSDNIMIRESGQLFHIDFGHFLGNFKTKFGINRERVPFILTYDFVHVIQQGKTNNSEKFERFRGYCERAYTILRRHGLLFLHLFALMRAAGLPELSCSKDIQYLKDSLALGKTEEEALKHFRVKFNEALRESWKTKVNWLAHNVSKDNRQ
As to the kind of experiment: Binding affinity to PI3Kdelta (unknown origin). The settings on record: read-out: Ki(app).

In data set [3] the target is T1, Phosphatidylinositol 4,5-bisphosphate 3-kinase catalytic subunit delta isoform. Put plainly: Inhibition of PI3Kdelta in human whole blood assessed as suppression of CD69 expression.
The nature of data set [4]: Apparent permeability from apical to basolateral side in MDCKI cells at 10 uM after 2 hrs. In kind it is ADME, cell-based, Canis lupus familiaris. To be noted: dog, MDCK.

In the case of `CC(C)n1ncnc1-c1cn2c(n1)-c1cc([S@+]([O-])C3CCN(C(C)(C)C)CC3)ccc1OCC2`, the CLhep predicted at 1 µM in data set [1] was 12 mL/min/kg. Moreover, the Ki in data set [2] came out at 12 nM.
Regarding `Cc1nc(-c2cn3c(n2)-c2cc([C@H](C)N4CCN(C(C)(C)C)CC4)c(F)cc2OCC3)n(C(C)C)n1`, the Ki in data set [2] turned out to be 2.4 nM.
Same read-out and setting: the figure for `Cc1nc(-c2cn3c(n2)-c2cc([C@@H](C)N4CCN(C(C)(C)C)CC4)ncc2OCC3)n(C(C)C)n1` is 2.8 nM.
Take `CC(C)n1ncnc1-c1cn2c(n1)-c1cc(S(=O)(=O)N3CCN(C(C)(C)C)CC3)ccc1OCC2`: the CLhep predicted at 1 µM in data set [1] was 20 mL/min/kg. Besides, the Ki in data set [2] came out at 1.2 nM.
In the same order, the values of `CC(C)n1ncnc1-c1cn2c(n1)-c1cc([S@@+]([O-])C3CCN(C(C)(C)C)CC3)ccc1OCC2` are 17 mL/min/kg and 0.81 nM.
For the molecule `Cc1nc(-c2cn3c(n2)-c2cc([C@@H](C)N4CCN(C(C)(C)C)CC4)c(F)cc2OCC3)n(C(C)C)n1`, the IC50 in data set [3] came to 15 nM. In data set [1], the CLhep predicted at 1 µM was 15 mL/min/kg. Also, the Ki in data set [2] came out at 0.78 nM. Moreover, in data set [4], the apical-to-basolateral permeability (Papp A→B) at 2 h, 10 µM stood at 13.6 ×10⁻⁶ cm/s.
As for `CC(C)n1ncnc1-c1cn2c(n1)-c1cc(C(=O)N3CCN(C(C)(C)C)CC3)ccc1OCC2`, in data set [1], the CLhep predicted at 1 µM is 14 mL/min/kg. In addition, the Ki in data set [2] was determined as 1.7 nM.
In the same order, the values of `CC(C)n1ncnc1-c1cn2c(n1)-c1cc(CN3CCC(C(C)(C)O)CC3)ccc1OCC2` are 6.8 mL/min/kg and 20 nM.
The like results for `CC(C)n1ncnc1-c1cn2c(n1)-c1cc(CN3CCN(C(C)(C)C)CC3)ccc1OCC2` were, in that order, 9.7 mL/min/kg and 2.5 nM.
In the case of `Cc1nc(-c2cn3c(n2)-c2cc([C@@H](C)N4CCN(C(C)(C)C)CC4)c(C)cc2OCC3)n(C(C)C)n1`, the CLhep predicted at 1 µM in data set [1] was 8.4 mL/min/kg. In addition, the Papp A→B at 2 h, 10 µM in data set [4] stood at 14.2 ×10⁻⁶ cm/s.
For `Cc1nc(-c2cn3c(n2)-c2cc([C@H](C)N4CCN(C(C)(C)C)CC4)ncc2OCC3)n(C(C)C)n1`, in data set [3], the IC50 stood at 28 nM. In addition, the CLhep predicted at 1 µM in data set [1] is less than 3.9 mL/min/kg. Besides, the Ki in data set [2] was found to be 1.9 nM. The Papp A→B at 2 h, 10 µM in data set [4] came to 10 ×10⁻⁶ cm/s.

As usually defined, the IC50 is the concentration that inhibits the measured activity by half. Broadly, the Papp A→B is the apparent permeability from the apical to the basolateral side of a cell layer.
